Earlier results on 1 molecule are cited in patent US12606521B2, “Methods of treating cancer” (Institute For Cancer Research, priority 2020, dated 2026).

The test system of this data set is cancer cells. The note with it: combination with decitabine.

For the molecule `Cc1cc(C(C#N)c2ccc(Cl)cc2)c(Cl)cc1NC(=O)c1cc(I)cc(I)c1O` (stereo not shown) [closantel], the “Interaction with decitabine in killing cancer cells” value is listed as “synergizes with decitabine”.
